Experimental data published in US20130029391A1, “METHOD OF PREPARING KODA USING LEMNA PAUCICOSTATA” (priority 2010, published 2013).
Blank lines part the entries; values can stand above or below the molecule they belong to.

Assays:
[1] = test system: Lemna paucicostata SH strain allene oxide synthase SHLpAOS, SEQ ID NO: 4; assay: kinetic analysis of SHLpAOS with 9-HPOT (A234 decrease, Hanes-Woolf plot); type: biochemical
Procedure: (§1) SHLpAOS obtained from Lemna paucicostata SH strain was subjected to kinetic analysis. […] The substrate 9-HPOT was tested at the substrate concentration of 5-53 μM. The substrate 9-HPOT was added as an EtOH solution, and the final concentration of EtOH was adjusted to 1%. 100 μl of the reaction mixture was added into a cuvette, and a decrease in absorbance at 234 nm was scanned over time for 1 minute at an interval of 2 seconds using the SmartSpec Plus Spectrophotometer (Bio-Rad). From the A234 determined, the amount of the reaction product was calculated (e=25,000). […] It is believed that compared to AtAOS, SHLpAOS is a very useful AOS in the practical production of KODA.

[2] = test system: Lemna paucicostata SH strain position 9-product specific lipoxygenase SHLpLOX (LpLOX-SH), SEQ ID NO: 3; conditions: 40 mM phosphate buffer (pH 6.0), 0.1% Tween 80, 25° C; substrate 10-100 μM
Procedure: The sequence of SHLpLOSX obtained was introduced into a vector (pET23d, Novagen) for protein expression, and then transformed into Escherichia coli (BL21(DE3), Novagen), so as to allow the expression of SHLpLOX protein. Using this SHLpLOX protein, the activity test in KODA production was carried out. […] Using a reaction mixture comprising 40 mM phosphate buffer (pH 6.0) and 0.1% Tween 80, the analysis was carried out at a temperature of 25° C. […] The amount of the reaction product was calculated from the […] determined (e=25,000). Kinetic parameters were determined using the Hanes-Woolf plot ([S]/v versus [S] plot).

[3] = target: rice germ position 9-specific lipoxygenase r9-LOX1 (Oryza sativa, UniProt Q76I22); conditions: 40 mM phosphate buffer (pH 6.0), 0.1% Tween 80, 25° C; substrate 10-100 μM
Procedure: Using a reaction mixture comprising 40 mM phosphate buffer (pH 6.0) and 0.1% Tween 80, the analysis was carried out at a temperature of 25° C. […] The amount of the reaction product was calculated from the [MUT] determined (e=25,000). Kinetic parameters were determined using the Hanes-Woolf plot ([S]/v versus [S] plot).

[4] = substrate: CC/C=C\C/C=C\C=C\[C@H](CCCCCCCC(=O)O)OO; assay: kinetic analysis of AtAOS with 9-HPOT (A234 decrease, Hanes-Woolf plot); type: biochemical, Arabidopsis thaliana; conditions: other: 40 mM phosphate buffer (pH 7.5), 1% EtOH, 25° C, substrate 5-53 μM
Procedure: (§2) To 20 μl of this 9-HPOT reaction mixture, 0.32 ng of the SHLpAOS protein or A. thaliana-derived AOS (AtAOS) protein was added and reacted at room temperature for 10 minutes. After the reaction was over, the reaction was terminated by a heat treatment at 50° C. for 3 minutes. 10 μl of this solution was analyzed by HPLC. HPLC analysis was carried out with a column: Capcell pak C-18 UG120 (4.6×250 mm), and using mobile phase: 50% acetonitrile solution (0.02% TFA), flow rate: 1 ml/min, detection wavelength: 210 nm.
as §1

[5] = Activity test in KODA production: AOS reacted with 9-HPOT reaction mixture, HPLC; type: biochemical; conditions: 0.32 ng protein, 20 μl 9-HPOT reaction mixture, room temperature, 10 minutes; FIG. 5
Procedure: as §2

[6] = Kinetic analysis of AOS, decrease in absorbance at 234 nm, Hanes-Woolf plot; type: biochemical; conditions: SHLpAOS versus AtAOS
Procedure: as §1

[7] = Activity test in KODA production: HPLC of linolenic acid hydroperoxide formed by LOX; type: biochemical; conditions: 5 mM linolenic acid solution, pH 7, room temperature, 30 minutes; FIG. 4
Procedure: HPLC analysis was carried out with a column: Capcell pak C-18 UG120 (4.6×250 mm, Shiseido), by using column temperature: 40° C., mobile phase: 50% acetonitrile solution (0.02% TFA), flow rate: 1 ml/min, detection wavelength: 210 nm.

[8] = Kinetic analysis of 9-LOX, absorbance at 234 nm, Hanes-Woolf plot; type: biochemical; conditions: SHLpLOX versus r9-LOX1
Procedure: The substrate α-linolenic acid was tested at the substrate concentration of 10-100 μM. 100 μl of the reaction mixture was added into a cuvette, and absorbance at 234 nm was scanned over time for 10 minutes at an interval of 15 seconds using the SmartSpec Plus Spectrophotometer (Bio-Rad).

[9] = 40 mM phosphate buffer (pH 7.5), 1% EtOH, 25° C, substrate 5-53 μM
[10] = higher in SHLpAOS than in AtAOS

rice germ position 9-specific lipoxygenase r9-LOX1, sequence (Q76I22 whole entry): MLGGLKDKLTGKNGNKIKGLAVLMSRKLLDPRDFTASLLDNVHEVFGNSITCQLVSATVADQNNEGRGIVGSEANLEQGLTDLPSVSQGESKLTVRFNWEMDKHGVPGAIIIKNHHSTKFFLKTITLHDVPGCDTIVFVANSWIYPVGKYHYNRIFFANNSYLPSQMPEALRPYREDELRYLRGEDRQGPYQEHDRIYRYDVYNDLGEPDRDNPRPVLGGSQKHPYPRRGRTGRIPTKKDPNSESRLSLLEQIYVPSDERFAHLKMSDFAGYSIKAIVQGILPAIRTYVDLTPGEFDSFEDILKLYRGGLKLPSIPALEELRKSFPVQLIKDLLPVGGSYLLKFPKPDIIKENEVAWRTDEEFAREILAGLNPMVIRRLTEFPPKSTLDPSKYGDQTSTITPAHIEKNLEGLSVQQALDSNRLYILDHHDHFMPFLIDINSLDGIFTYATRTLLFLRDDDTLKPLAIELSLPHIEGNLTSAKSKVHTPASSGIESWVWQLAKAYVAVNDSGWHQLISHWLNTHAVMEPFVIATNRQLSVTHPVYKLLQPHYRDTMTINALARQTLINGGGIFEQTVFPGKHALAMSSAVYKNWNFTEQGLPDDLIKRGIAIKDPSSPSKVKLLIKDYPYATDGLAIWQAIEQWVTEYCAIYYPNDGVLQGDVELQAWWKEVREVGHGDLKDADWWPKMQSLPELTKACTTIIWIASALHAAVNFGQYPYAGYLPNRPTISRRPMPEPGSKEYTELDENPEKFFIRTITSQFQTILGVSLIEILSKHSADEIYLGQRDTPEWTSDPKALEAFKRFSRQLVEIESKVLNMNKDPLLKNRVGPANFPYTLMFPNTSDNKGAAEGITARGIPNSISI

Km [1, 9]: 7.1 ± 1.9 µM
Molecule: CC/C=C\C/C=C\C=C\[C@H](CCCCCCCC(=O)O)OO [9-HPOT, 9-hydroperoxylinolenic acid]
Vmax [1, 9]: 4.7 ± 0.3 µmol/s
kcat [1, 9]: 709.2 ± 44.3 s⁻¹
Kcat, SHLpAOS relative to AtAOS [1, 10]: about 2.8 fold
Vmax, SHLpAOS relative to AtAOS [1, 10]: about 2.8 fold

Km [2]: 19.2 ± 4.1 µM
Vmax [2]: 3.0 ± 0.1 µmol/min
kcat [2]: 768.2 ± 32.3 min⁻¹
Km [3]: 22.9 ± 1.6 µM
Vmax [3]: 2.8 ± 0.6 µmol/min
kcat [3]: 614.1 ± 124.6 min⁻¹
Molecule: CC/C=C\C/C=C\C/C=C\CCCCCCCC(=O)O [α-linolenic acid, cis-9,12,15-octadecatrienoic acid]

B1: Arabidopsis thaliana allene oxide synthase AtAOS (Arabidopsis thaliana) (protein)
chain: SGSETPDLTVATRTGSKDLPIRNIPGNYGLPIVGPIKDRWDYFYDQGAEEFFKSRIRKYNSTVYRVNMPPGAFIAENPQVVALLDGKSFPVLFDVDKVEKKDLFTGTYMPSTELTGGYRILSYLDPSEPKHEKLKNLLFFLLKSSRNRIFPEFQATYSELFDSLEKELSLKGKADFGGSSDGTAFNFLARAFYGTNPADTKLKADAPGLITKWVLFNLHPLLSIGLPRVIEEPLIHTFSLPPALVKSDYQRLYEFFLESAGEILVEADKLGISREEATHNLLFATCFNTWGGMKILFPNMVKRIGRAGHQVHNRLAEEIRSVIKSNGGELTMGAIEKMELTKSVVYECLRFEPPVTAQYGRAKKDLVIESHDAAFKVKAGEMLYGYQPLATRDPKIFDRADEFVPERFVGEEGEKLLRHVLWSNGPETETPTVGNKQCAGKDFVVLVARLFVIEIFRRYDSFDIEVGTSPLGSSVNFSSLRKASF
Km [4]: 36.3 ± 1.3 µM
Vmax [4]: 102 µmol/min
kcat [4]: 256 ± 4.8 s⁻¹
kcat/Km [4]: 7e+06 ± 3.8e+06 M⁻¹ s⁻¹

B2: SHLpAOS: allene oxide synthase derived from Lemna paucicostata SH strain (SEQ ID NO: 4), expressed in Escherichia coli; printed as LpLOX-SH in Table 2 (protein, listed as Lemna paucicostata)
chain: MSVSQSDDKAALVPQKTIPGSYGIPFITPLKDRLDFFSNEYQFFQSRVESYGSTIVRLNAPPGPFMAKNPQVIAILDGKSFPVLFDTSKVEKKNIFTGTYMPSTALTGGYRVCAYLDPSEPNHTKIKQLLLNILFNRKDHVIPEFHRAYEKLFDDMDAEIAKSGKFVFNDHNDGAAFEFLGRLFFGVSPSETELGAGGVKDANLWLFSQLCPLMTLGFLPKLLEDLLLHTFPLPPFLFKGKYQAIYKYISSVATDALTMAENLGLSREEAAHNLLFAVCFNSLGGVKVLFPGILRYIAQAGKNLQASLVSEVRSAVSSTGGELTIEALEKMPLTKSVVYESLRLDPPVKYQYGVVKKDMVIESHDRSYEVKAGETLFGYQPFATRDKKIFGPDADNFVAERFIGEEGAKVLRFVVWSNGPETTDPTPVDKQCPGKNLVVLISRLLVAEFFLRYDFFDAEIGAVPLAVKTTITSLTKATTR
AOS activity relative to AtAOS protein [5]: ~7 fold
affinity for 9-HPOT (Km) relative to AtAOS [6]: about 5 fold
kcat/Km value relative to AtAOS [6]: about 14 fold

B3: SHLpLOX: position 9-product specific lipoxygenase derived from Lemna paucicostata SH strain (SEQ ID NO: 3), expressed in Escherichia coli (protein, listed as Lemna paucicostata)
chain: MAGFLQKVTDNLLHKAAKISGTVVLVKSNVVGFNDFADSFLDGLHELLGSGITFQLVSATVGDPKNGNKGKLGKPALLEKWITTGTFLAAGDSGFKVNFEWDEQLGVPGAVIVKNNHHGEFFLKSLTLDGAPGPRSRIHFDCNSWVYPYSTYNYDRVFFANDTYLPGEMPEPLKAYRAAELVNLRGDGVTRELKEGDRIYAYDLYNDLGDPDSGKELARPILGGSEEYPYPRRARTGRKLTKTDPKSEQRLPLVFSLNVYVPRDERFGHLKMSDFLAYSLKALAQGLVPALDAATDITPFEFDTFQDVLNLYEGGINLPTTPALENFKKQIPFPLVKELFRSDGENLFRLPTPSVIKADKFAWRTDEEFGREMLAGVNPVCIRLLKKFPPVSSLDPSIYRNQNSTMIADQLEKNMNGLSVEEALKQKKLFILDHHDSLMPYLERINTFNKIYASRTVLLLQDDGTLKPLAIELSLPVKGEKGAVSKVYTPAEHGVEGAVWQLAKAYVAVNDSGVHQLISHWLNTHATIEPFSIALNRQLSVVHPIYKLLHPHFRDTMNINAFARQILINAGGILEMTVFPGKYAMEMSSVVYKGWKLTDQALPVDLLNRGVAEKDPSSGELRLLIEDYPYAVDGLDVWNAIEEWVKEYCAIYYPSDKTLQDDTEVQAWWKEVREVGHGDKKDETWWPAMETVAELTQTCSTIIWVASALHAAVNFAQYPYAGYLPNRPTISRRFMPEPGTPEYEELETDPDRAFLKTITSQLQTLIGVSLIEILSRHSSDEIYLGQRVSAEWTSDAKALAAFKAFGEKLITIENKIIEMNVDSSLKNRNGPVKVPYTFLYPNTTDYTRVGGLTGRGIPNSISI
LOX activity (linolenic acid hydroperoxide formed) compared with r9-LOX1 [7]: much higher activity than r9-LOX1
kcat/Km value relative to r9-LOX1 [8]: about 1.6 fold
